TGI data for 22 compounds are collected here from PubChem BioAssay (NCI).

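Values below derive from 48-hour exposures of cells grown in 96-well plates, with endpoints linearly interpolated between the two concentrations bracketing the appropriate inhibition level. TGI marks complete inhibition of growth.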

Some test systems named below: A549 NSCLC; EKVX NSCLC; HOP-92 NSCLC; HT29 colon; K-562 leukemia; M14 melanoma; NCI-H23 lung; NCI/ADR-RES ovarian; OVCAR-8 ovarian; RXF 393 renal; SN12C renal.
Common to all, as to assay: NCI tumour cell line growth inhibition, 48 h

On to `O=C(O)c1ccc(NS(=O)(=O)Cc2ccccc2)cc1`, for which the TGI with A549 NSCLC, in the assay with EKVX NSCLC, with HOP-92 NSCLC, in the assay with HT29 colon, with K-562 leukemia and in the assay on M14 melanoma was > 100 µM each time. Moreover, the TGI with NCI-H23 lung, with NCI/ADR-RES ovarian, with OVCAR-8 ovarian, with RXF 393 renal and with SN12C renal was > 100 µM in each case.

Regarding `Cc1cccc(C[C@@]2(SCc3ccccc3)C(C)(C)[C@@H]3CC[C@@]2(C)C3)n1`, the TGI in the assay on A549 NSCLC was determined as 51.1 µM; in the assay with EKVX NSCLC, 40.2 µM; in the assay on HOP-92 NSCLC, 27.6 µM; in the assay on HT29 colon it was 31.9 µM; with K-562 leukemia, 28.9 µM; with M14 melanoma it was 46.2 µM. The TGI in the assay with NCI-H23 lung came to 31.4 µM; with NCI/ADR-RES ovarian, 30.2 µM; with OVCAR-8 ovarian, 30 µM; in the assay with RXF 393 renal, 30.9 µM; in the assay on SN12C renal it was 31.5 µM.

Turning to `CN1CN(c2ccccc2)C2(CCN(CCCC3(c4cccs4)OCCO3)CC2)C1=O`, the TGI with A549 NSCLC, with EKVX NSCLC, in the assay on HOP-92 NSCLC, in the assay on HT29 colon, with K-562 leukemia and in the assay with M14 melanoma was > 100 µM throughout. The TGI in the assay on NCI-H23 lung, with NCI/ADR-RES ovarian, in the assay with OVCAR-8 ovarian, in the assay with RXF 393 renal and with SN12C renal was > 100 µM each time.

`O=C1C(C=NCCc2c[nH]c3ccccc23)C(C(F)(F)F)=NN1c1nc2ccccc2s1` (configuration not stated): the TGI in the assay on A549 NSCLC is > 100 µM; in the assay with EKVX NSCLC, 62.9 µM; with HOP-92 NSCLC, 48.5 µM; in the assay on HT29 colon, 88 µM; in the assay with K-562 leukemia, > 100 µM; in the assay with M14 melanoma, > 100 µM. The TGI is > 100 µM in the assay with NCI-H23 lung; 78 µM in the assay with NCI/ADR-RES ovarian; > 100 µM with OVCAR-8 ovarian; 48.5 µM in the assay with RXF 393 renal; > 100 µM with SN12C renal.

As to `CC1=CC=CC(C)(C)CC1(O[Si](C)(C)C)C(F)(F)F` (configuration not stated), the TGI in the assay with A549 NSCLC, in the assay with EKVX NSCLC, in the assay on HOP-92 NSCLC, in the assay with HT29 colon, in the assay with K-562 leukemia and with M14 melanoma was > 100 µM throughout. In addition, the TGI with NCI-H23 lung, in the assay with NCI/ADR-RES ovarian, with OVCAR-8 ovarian, in the assay with RXF 393 renal and in the assay on SN12C renal was > 100 µM each time.

As to `Cc1ccc(C2=Nc3c(c(C)nn3-c3ccccc3)N=C(C(=O)O)C2)cc1`, the TGI in the assay with A549 NSCLC, in the assay on EKVX NSCLC, in the assay with HOP-92 NSCLC, in the assay on HT29 colon, with K-562 leukemia and in the assay on M14 melanoma was > 10 µM throughout. Besides, the TGI with NCI-H23 lung, with NCI/ADR-RES ovarian, in the assay on OVCAR-8 ovarian, in the assay on RXF 393 renal and in the assay with SN12C renal was > 10 µM each time.

Take `CCOC(=O)c1c(SCCN2CCCC2)n(-c2ccccc2)c(=S)n(-c2ccccc2)c1=O`: the TGI came out at 14.6 µM with A549 NSCLC; 27 µM with EKVX NSCLC; 4.48 µM in the assay on HOP-92 NSCLC; 11.5 µM in the assay on HT29 colon; 5.63 µM in the assay on K-562 leukemia; 3.25 µM in the assay with M14 melanoma. Further, the TGI is 27.4 µM in the assay with NCI-H23 lung; > 92 µM with NCI/ADR-RES ovarian; 4.29 µM with OVCAR-8 ovarian; 3.36 µM with RXF 393 renal; 3.18 µM with SN12C renal.

Consider `Cc1cc(C)c2c(n1)S(=O)(=O)N(CCCN1CCN(c3cccc(C(F)(F)F)c3)CC1)/C(=C(\O)c1ccc(Cl)cc1)C2=O`, for which the TGI with A549 NSCLC is 13.1 µM; in the assay on EKVX NSCLC, 10.7 µM; in the assay on HOP-92 NSCLC it was 8.35 µM; with HT29 colon, 13.3 µM; with K-562 leukemia, > 100 µM; with M14 melanoma, 18.1 µM. The TGI in the assay on NCI-H23 lung was 14 µM; with NCI/ADR-RES ovarian, 16.4 µM; with OVCAR-8 ovarian, 29.5 µM; in the assay with RXF 393 renal, 19.1 µM; in the assay on SN12C renal it was 13.8 µM.

Regarding `CC1=CC(=O)N(n2c(C)n[nH]c2=O)C1=O`, the TGI with A549 NSCLC, with EKVX NSCLC, in the assay on HOP-92 NSCLC, in the assay with HT29 colon, in the assay with K-562 leukemia and in the assay on M14 melanoma was > 100 µM throughout. For the same compound, the TGI in the assay with NCI-H23 lung, with NCI/ADR-RES ovarian, in the assay with OVCAR-8 ovarian, in the assay with RXF 393 renal and in the assay with SN12C renal was > 100 µM each time.

Consider `N#CC(C#N)=C1CCCS(=O)(=O)c2ccccc21`, for which the TGI in the assay with A549 NSCLC, in the assay with EKVX NSCLC, with HOP-92 NSCLC, in the assay on HT29 colon, in the assay on K-562 leukemia and in the assay on M14 melanoma was > 100 µM throughout. In addition, the TGI in the assay with NCI-H23 lung, with NCI/ADR-RES ovarian, in the assay on OVCAR-8 ovarian, in the assay on RXF 393 renal and with SN12C renal was > 100 µM in each case.

For the compound `O=C(O)CNC(=O)c1ccc([As](=O)(O)O)cc1`, the TGI in the assay on A549 NSCLC, with EKVX NSCLC, in the assay on HOP-92 NSCLC, in the assay on HT29 colon, in the assay with K-562 leukemia and in the assay with M14 melanoma was > 100 µM throughout. Moreover, the TGI in the assay on NCI-H23 lung, with NCI/ADR-RES ovarian, with OVCAR-8 ovarian, in the assay on RXF 393 renal and in the assay with SN12C renal was > 100 µM throughout.

Turning to `N#CSCc1cccc(Nc2cc(=O)[nH]c(=O)[nH]2)c1`, the TGI in the assay on A549 NSCLC is > 100 µM; in the assay with EKVX NSCLC it was > 100 µM; in the assay with HOP-92 NSCLC, 85.7 µM; in the assay on HT29 colon, > 100 µM; in the assay on K-562 leukemia it was > 100 µM; in the assay on M14 melanoma it was > 100 µM. Also, the TGI in the assay with NCI-H23 lung, with NCI/ADR-RES ovarian, in the assay with OVCAR-8 ovarian, in the assay with RXF 393 renal and in the assay on SN12C renal was > 100 µM each time.

As for `COC(=O)CCCC(=O)C(=Nc1c(Cl)cccc1Cl)NNc1ccc(Cl)cc1`, the TGI in the assay on A549 NSCLC, with EKVX NSCLC, in the assay on HOP-92 NSCLC, with HT29 colon, in the assay on K-562 leukemia and in the assay on M14 melanoma was > 100 µM each time. Moreover, the TGI was > 100 µM in the assay on NCI-H23 lung; > 100 µM in the assay on NCI/ADR-RES ovarian; > 100 µM in the assay with OVCAR-8 ovarian; > 68.2 µM in the assay with RXF 393 renal; > 100 µM in the assay on SN12C renal.

With `CCOC(=O)C1C(=O)CC(O)(c2ccccc2)C(C(=O)OCC)C1c1ccc(OC)cc1` (configuration not stated), the TGI in the assay with A549 NSCLC was > 100 µM; in the assay on EKVX NSCLC it was > 100 µM; in the assay with HOP-92 NSCLC, > 82 µM; in the assay on HT29 colon, 35.9 µM; in the assay with K-562 leukemia it was > 83.4 µM; in the assay on M14 melanoma, 82.9 µM. Further, the TGI in the assay on NCI-H23 lung was > 100 µM; with NCI/ADR-RES ovarian, > 55.9 µM; with OVCAR-8 ovarian, > 100 µM; in the assay with RXF 393 renal, 50.5 µM; with SN12C renal, > 100 µM.

With `CO/N=C1/c2sccc2[C@H](NC(=O)CNC(=O)OC(C)(C)C)[C@@H]1O`, the TGI with A549 NSCLC, in the assay on EKVX NSCLC, in the assay with HOP-92 NSCLC, in the assay on HT29 colon, with K-562 leukemia and in the assay on M14 melanoma was > 100 µM in each case. Also, the TGI in the assay with NCI-H23 lung, with NCI/ADR-RES ovarian, with OVCAR-8 ovarian, in the assay with RXF 393 renal and in the assay with SN12C renal was > 100 µM in each case.

Turning to `CCOc1ccc(N=C/C=C(\Cl)c2ccc3ccccc3c2)cc1`, the TGI in the assay with A549 NSCLC was > 100 µM; with EKVX NSCLC, 62.1 µM; with HOP-92 NSCLC, 33.3 µM; in the assay with HT29 colon, 33.3 µM; with K-562 leukemia it was 23.7 µM; in the assay with M14 melanoma it was 37.7 µM. The TGI in the assay on NCI-H23 lung stood at 25.1 µM; in the assay on NCI/ADR-RES ovarian, 31.8 µM; in the assay with OVCAR-8 ovarian, 32.8 µM; in the assay on RXF 393 renal it was 34.1 µM; in the assay on SN12C renal it was 33.9 µM.

Regarding `CCN(CC)CCCn1c(=O)c2cccnc2n2c3c(=O)n(C)c(=O)n(C)c3nc12`, the TGI with A549 NSCLC, with EKVX NSCLC, in the assay with HOP-92 NSCLC, in the assay on HT29 colon, with K-562 leukemia and in the assay on M14 melanoma was > 100 µM throughout. The TGI in the assay on NCI-H23 lung, in the assay on NCI/ADR-RES ovarian, in the assay with OVCAR-8 ovarian, in the assay on RXF 393 renal and with SN12C renal was > 100 µM in each case.

As for `N#Cc1c2c(c(Nc3ccc(F)cc3)n3c1nc1ccccc13)CCC2`, the TGI with A549 NSCLC was 22.5 µM; with EKVX NSCLC it was 26 µM; in the assay on HOP-92 NSCLC, 20.5 µM; in the assay with HT29 colon it was 3.61 µM; in the assay with K-562 leukemia, > 100 µM; in the assay with M14 melanoma it was 18.4 µM. The TGI in the assay with NCI-H23 lung is 17.6 µM; in the assay with NCI/ADR-RES ovarian, 25 µM; with OVCAR-8 ovarian, 5.83 µM; with RXF 393 renal it was 7.9 µM; in the assay with SN12C renal, 4.59 µM.

Turning to `CN1C(=O)CN(NC(=O)C2=C(O)c3ccc(Br)cc3S(=O)(=O)N2)C1=S`, the TGI with A549 NSCLC, in the assay with EKVX NSCLC, in the assay with HOP-92 NSCLC, with HT29 colon, with K-562 leukemia and in the assay on M14 melanoma was > 100 µM each time. In addition, the TGI in the assay with NCI-H23 lung, with NCI/ADR-RES ovarian, with OVCAR-8 ovarian, in the assay with RXF 393 renal and in the assay on SN12C renal was > 100 µM in each case.

`CC(=O)OCC1OC(n2c(=S)[nH]c(-c3ccccc3)c(C#N)c2=O)C(OC(C)=O)C(OC(C)=O)C1OC(C)=O` (configuration not stated): the TGI with A549 NSCLC, in the assay with EKVX NSCLC, in the assay with HOP-92 NSCLC, in the assay on HT29 colon, in the assay with K-562 leukemia and with M14 melanoma was > 100 µM each time. Moreover, the TGI in the assay with NCI-H23 lung, in the assay on NCI/ADR-RES ovarian, in the assay on OVCAR-8 ovarian, in the assay on RXF 393 renal and with SN12C renal was > 100 µM each time.

In the case of `CN(O)C(=O)Cc1ccc(OCc2cccc(Cl)c2)cc1`, the TGI with A549 NSCLC, in the assay on EKVX NSCLC, with HOP-92 NSCLC, in the assay with HT29 colon, with K-562 leukemia and with M14 melanoma was > 100 µM each time. Besides, the TGI in the assay with NCI-H23 lung, in the assay on NCI/ADR-RES ovarian, with OVCAR-8 ovarian, in the assay on RXF 393 renal and in the assay with SN12C renal was > 100 µM each time.

Turning to `O=c1c2cc(I)ccc2[nH]c(=S)n1Cc1ccccc1`, the TGI with A549 NSCLC was > 100 µM; in the assay on EKVX NSCLC it was 35.4 µM; in the assay on HOP-92 NSCLC, 63.2 µM; in the assay with HT29 colon, > 100 µM; with K-562 leukemia it was > 100 µM; in the assay with M14 melanoma it was > 100 µM. In addition, the TGI is > 100 µM in the assay on NCI-H23 lung; > 100 µM in the assay on NCI/ADR-RES ovarian; > 100 µM with OVCAR-8 ovarian; 78 µM with RXF 393 renal; > 100 µM with SN12C renal.
